{
  "source": "patent US7202084B2",
  "about": "“Beta-alanine N-methyltransferase” (University of Florida Research Foundation, Inc., priority 2001, dated 2007)",
  "key": {"[1]": {"target": "T1, L. latifolium NMTase (Limonium latifolium, UniProt Q84N56)", "T1 sequence (Q84N56 1-375)": "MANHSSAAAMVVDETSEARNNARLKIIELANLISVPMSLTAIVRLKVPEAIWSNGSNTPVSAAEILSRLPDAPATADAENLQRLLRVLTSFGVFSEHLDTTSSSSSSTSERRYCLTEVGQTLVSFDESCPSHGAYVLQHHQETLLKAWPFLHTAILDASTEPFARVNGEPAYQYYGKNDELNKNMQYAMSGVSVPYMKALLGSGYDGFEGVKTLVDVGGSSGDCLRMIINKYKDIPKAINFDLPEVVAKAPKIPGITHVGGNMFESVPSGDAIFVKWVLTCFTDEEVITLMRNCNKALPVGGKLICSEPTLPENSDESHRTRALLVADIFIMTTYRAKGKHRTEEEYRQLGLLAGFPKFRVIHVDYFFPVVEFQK", "assay": "Kinetic characterization of NMTase, radiometric assay", "format": "biochemical", "experimental": "Enzyme Assay. […] Following incubation at 30° C. for 30 minutes, the reactions were stopped by the addition of 10 μL of 10% (w/v) trichloroacetic acid containing 1 mM of methylated products as unlabeled carrier. Activated charcoal (38 mg.ml^-1) in 0.1 N acetic acid, 250 μL per assay, was added and centrifuged for five minutes. The radioactive product in the supernatant was quantified in 75% Ready Gel using a liquid scintillation counter (Beckman Instruments, Fullerton, Calif.). […] Kinetic Characterization. […] Kinetic constants were derived from the X and Y intercepts of a linear plot of s/v versus s drawn from triplicate assay results. Henderson, P J F (1993) Statistical analysis of enzyme kinetic data. In […]., Enzyme assays a practical approach, IRL Press, Oxford, pp. 276-316."}, "[2]": {"target": "T1, L. latifolium NMTase", "assay": "Effect of a thiol reagent on NMTase activities", "format": "biochemical", "details": "for % Activity DM: N,N-dimethyl β-alanine as methyl acceptor; for % Activity DM / % Activity MM / % Activity BA: mean ± SE, n=3; for % Activity MM: N-methyl β-alanine as methyl acceptor; for % Activity BA: β-alanine as methyl acceptor", "experimental": "Enzyme Assay. […] The assay mixture contained 54 μL of enzyme preparation in a total volume of 100 μL containing 0.1 M Tris-HCl buffer pH 8.0, 2 mM DTT, 10 mM methyl acceptor, 100 μM AdoMet and 0.027 μM S-Adenosyl-L-[methyl-^3H]Met (200 nCi of radioactivity). Following incubation at 30° C. for 30 minutes, the reactions were stopped by the addition of 10 μL of 10% (w/v) trichloroacetic acid containing 1 mM of methylated products as unlabeled carrier. Activated charcoal (38 mg.ml^−1) in 0.1 N acetic acid, 250 μL per assay, was added and centrifuged for five minutes. The radioactive product in the supernatant was quantified in 75% Ready Gel using a liquid scintillation counter (Beckman Instruments, Fullerton, Calif.). The counting efficiency was 30%.\nEffect of a Thiol Reagent. Protein purified using PEG precipitation was assayed with or without added DTT in the presence and absence of the thiol reagent p-hydroxymercuribenzoic acid."}, "[3]": {"details": "0.2 mM pHMB 10 min + 5 mM DTT for 30 min, relative to control"}, "[4]": {"details": "Minus DTT plus 0.2 mM pHMB, relative to control with 5 mM DTT"}},
  "data": [
    {"smiles": "C[S+](CC[C@H](N)C(=O)[O-])C[C@H]1O[C@@H](n2cnc3c(N)ncnc32)[C@H](O)[C@@H]1O", "note": "(stereo partly drawn) [Ado-Met, S-adenosyl-L-methionine]", "values": [
      {"measurement": "Concentration above which substrate inhibition was exhibited", "setting": "[1]; at 10 mM β-alanine", "value": "above 200 μM"}
    ]},
    {"smiles": "Nc1ncnc2c1ncn2[C@@H]1O[C@H](CSCC[C@H](N)C(=O)O)[C@@H](O)[C@H]1O", "note": "[AdoHCy, S-adenosyl-L-homocysteine]", "values": [
      {"measurement": "Inhibition of NMTase (in words)", "setting": "[1]", "value": "highly inhibitory"},
      {"measurement": "IC50", "setting": "[1]; read-out: Concentration giving 50% inhibition of NMTase, 10 mM β-alanine and 100 μM Ado-Met", "value": 40, "unit": "µM"}
    ]},
    {"smiles": "O=C(O)c1cc[c]([Hg+])cc1.[OH-]", "note": "[pHMB, p-hydroxymercuribenzoate]", "values": [
      {"measurement": "Inhibition of NMTase (in words)", "setting": "[2]", "value": "highly inhibited"},
      {"measurement": "Reversibility of the inhibition by DTT", "setting": "[2]", "value": "partially reversible"},
      {"measurement": "% Activity DM", "setting": "[2]; [3]", "value": "55.2 ± 7.6", "unit": "%"},
      {"measurement": "% Activity MM", "setting": "[2]; [3]", "value": "23.0 ± 2.9", "unit": "%"},
      {"measurement": "% Activity BA", "setting": "[2]; [3]", "value": "22.6 ± 2.9", "unit": "%"},
      {"measurement": "% Activity DM", "setting": "[2]; [4]", "value": "0.4 ± 0.2", "unit": "%"},
      {"measurement": "% Activity MM", "setting": "[2]; [4]", "value": "2.4 ± 1.4", "unit": "%"},
      {"measurement": "% Activity BA", "setting": "[2]; [4]", "value": "1.3 ± 0.7", "unit": "%"}
    ]}
  ]
}
